Patent publication US20220409510A1, “Polypeptides And Methods For Improving Skin Conditions” (Interk Peptide Therapeutics Limited, priority 2018, published 2022)

System: apoptotic keratinocytes
Experiment: Sunburn (apoptotic) cells in mouse skin after UV-irradiation
Format: in vivo, Skh:hr1 hairless mice
Conditions: topical 20, 100 or 200 ug in 100 uL immediately after UVR; FIG. 11
Procedure: UV-induced DNA damage in the form of elevated CPDs can induce mutations in epidermal cells leading to the development of cancer cells. Reduction of CPDs through application of DNA repair enzymes prevents the risk of UV-induced skin cancer and reduce the level of apoptotic cells following UV-induced damage. The number of apoptotic skin cells following UV-irradiation was assessed in accordance with the following protocol.
Female Skh:hr1 hairless mice were prepared, irradiated and biopsied according to the methods of Example 4. Prior to biopsy, and immediately after irradiation, mice were treated with either a base lotion vehicle (negative control), 11.4 pmol/cm2 of Calcitriol in vehicle (positive control) the polypeptide IK34720 (SEQ ID NO: 3) in water, at 20 ug, 100 ug or 200 ug in a total volume of 100 uL.
Biopsies were taken from UV-irradiated dorsal skin 3 hrs post-UVR and fixed in Histochoice fixative (Amresco, Solon OH) for 6 h. Skin samples were paraffin-embedded and 5 micrometre sections were cut for all analyses. Sections (24 h after UV) were subjected to routine hematoxylin and eosin staining for visualization of sunburn cells. The stained sections were examined under a Zeiss-Axioplan light microscope at 40× magnification, and the number of sunburn cells per linear millimetre of skin section recorded.

RSKAKNPLYRRRRRRRRR [IK34720, 18-residue polypeptide: … with a C-terminal polyarginine region of 8 arginines]
number of apoptotic keratinocytes (sunburn cells): reduced the number of apoptotic keratinocytes
